In article PMC4447944 (The Journal of Biological Chemistry, 2015):

How the values were obtained:
[1] = molecular target: T1, hALK(L1196M) (Homo sapiens, UniProt Q9UM73, L1196M); experiment: KINOMEscan; assay type: binding
T1 construct: purchased DiscoverX

[2] = molecular target: T2, hAXL (Homo sapiens, UniProt P30530); experiment: KINOMEscan; assay type: binding
T2 construct: purchased DiscoverX

[3] = molecular target: T3, hBIKE (Homo sapiens, UniProt Q9NSY1); experiment: KINOMEscan; assay type: binding
T3 construct: purchased DiscoverX

[4] = molecular target: T4, hCLK4 (Homo sapiens, UniProt Q9HAZ1); experiment: KINOMEscan; assay type: binding
T4 construct: purchased DiscoverX (KINOMEscan platform)

[5] = molecular target: T5, hDDR1 (Homo sapiens, UniProt Q08345); experiment: KINOMEscan; assay type: binding
T5 construct: purchased DiscoverX (KINOMEscan platform)

[6] = molecular target: T6, hDRAK2 (Homo sapiens, UniProt O94768); experiment: KINOMEscan; assay type: binding
T6 construct: purchased DiscoverX

[7] = molecular target: T7, hDYRK1B (Homo sapiens, UniProt Q9Y463); experiment: KINOMEscan; assay type: binding; details: read-out: Inhibition at the 20 μM dose
T7 construct: purchased DiscoverX

[8] = molecular target: T8, hDYRK2 (Homo sapiens, UniProt Q92630); experiment: KINOMEscan; assay type: binding
T8 construct: purchased DiscoverX

[9] = molecular target: T9, hEPHA8 (Homo sapiens, UniProt P29322); experiment: KINOMEscan; assay type: binding
T9 construct: purchased DiscoverX

[10] = molecular target: T10, hEPHB1 (Homo sapiens, UniProt P54762); experiment: KINOMEscan; assay type: binding
T10 construct: purchased DiscoverX

[11] = molecular target: T11, hERK2 (Homo sapiens, UniProt P28482); experiment: KINOMEscan; assay type: binding
T11 construct: purchased DiscoverX

[12] = molecular target: T12, hERK8 (Homo sapiens, UniProt Q8TD08); experiment: KINOMEscan; assay type: binding
T12 construct: purchased DiscoverX

[13] = molecular target: T13, hGRK4 (Homo sapiens, UniProt P32298); experiment: KINOMEscan; assay type: binding
T13 construct: purchased DiscoverX

[14] = molecular target: T14, hHIPK1 (Homo sapiens, UniProt Q86Z02); experiment: KINOMEscan; assay type: binding
T14 construct: purchased DiscoverX

[15] = molecular target: T15, hINSR (Homo sapiens, UniProt P06213); experiment: KINOMEscan; assay type: binding
T15 construct: purchased DiscoverX (KINOMEscan panel)

[16] = molecular target: T16, hLATS2 (Homo sapiens, UniProt Q9NRM7); experiment: KINOMEscan; assay type: binding
T16 construct: purchased DiscoverX (KINOMEscan platform)

[17] = molecular target: T17, hLCK (Homo sapiens, UniProt P06239); experiment: KINOMEscan; assay type: binding
T17 construct: purchased DiscoverX (KINOMEscan platform)

[18] = molecular target: T18, hLOK (Homo sapiens, UniProt O94804); experiment: KINOMEscan; assay type: binding
T18 construct: purchased DiscoverX (KINOMEscan platform)
T18 sequence (O94804 whole entry): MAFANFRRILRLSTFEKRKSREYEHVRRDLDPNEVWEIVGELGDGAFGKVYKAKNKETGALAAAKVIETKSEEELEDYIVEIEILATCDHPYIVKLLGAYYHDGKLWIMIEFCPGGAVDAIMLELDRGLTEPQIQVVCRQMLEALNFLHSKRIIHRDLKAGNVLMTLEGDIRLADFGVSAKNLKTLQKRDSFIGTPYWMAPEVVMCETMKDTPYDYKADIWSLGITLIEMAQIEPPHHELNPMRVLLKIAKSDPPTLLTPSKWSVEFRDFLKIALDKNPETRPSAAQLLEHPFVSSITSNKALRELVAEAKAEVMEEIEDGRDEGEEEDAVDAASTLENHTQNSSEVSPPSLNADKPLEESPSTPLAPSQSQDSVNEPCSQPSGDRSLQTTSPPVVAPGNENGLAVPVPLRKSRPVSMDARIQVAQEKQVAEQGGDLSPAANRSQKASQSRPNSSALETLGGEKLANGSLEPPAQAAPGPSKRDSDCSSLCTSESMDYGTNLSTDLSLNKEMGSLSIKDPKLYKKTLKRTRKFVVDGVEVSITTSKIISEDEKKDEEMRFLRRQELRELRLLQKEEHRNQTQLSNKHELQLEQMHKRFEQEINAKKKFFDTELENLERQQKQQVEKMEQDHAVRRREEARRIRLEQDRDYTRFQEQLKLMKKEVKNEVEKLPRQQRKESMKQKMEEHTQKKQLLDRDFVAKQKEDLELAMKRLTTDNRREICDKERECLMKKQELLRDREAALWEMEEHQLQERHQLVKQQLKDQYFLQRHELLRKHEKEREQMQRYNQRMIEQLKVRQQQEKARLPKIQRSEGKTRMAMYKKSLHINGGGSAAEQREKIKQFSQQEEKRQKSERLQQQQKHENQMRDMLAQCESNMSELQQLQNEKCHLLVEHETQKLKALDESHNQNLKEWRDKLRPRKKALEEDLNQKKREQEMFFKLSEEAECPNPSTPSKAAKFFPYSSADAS

[19] = molecular target: T19, hMAP4K2 (Homo sapiens, UniProt Q12851); experiment: KINOMEscan; assay type: binding
T19 construct: purchased DiscoverX (KINOMEscan platform)

[20] = molecular target: T20, hMEK3 (Homo sapiens, UniProt P46734); experiment: KINOMEscan; assay type: binding
T20 construct: purchased DiscoverX

[21] = molecular target: T21, hMEK5 (Homo sapiens, UniProt Q13163); experiment: KINOMEscan; assay type: binding
T21 construct: purchased DiscoverX

[22] = molecular target: T22, hMELK (Homo sapiens, UniProt Q14680); experiment: KINOMEscan; assay type: binding
T22 construct: purchased DiscoverX

[23] = molecular target: T23, hSgK110 (Homo sapiens, UniProt P0C264); experiment: KINOMEscan; assay type: binding
T23 construct: purchased DiscoverX (KINOMEscan platform)

[24] = molecular target: T24, hSIK2 (Homo sapiens, UniProt Q9H0K1); experiment: KINOMEscan; assay type: binding
T24 construct: purchased DiscoverX (KINOMEscan platform)

[25] = molecular target: T25, hSRPK1 (Homo sapiens, UniProt Q96SB4); experiment: KINOMEscan; assay type: binding
T25 construct: purchased DiscoverX (KINOMEscan platform)

[26] = molecular target: T26, hSTK16 (Homo sapiens, UniProt O75716); experiment: KINOMEscan; assay type: binding
T26 construct: purchased DiscoverX (KINOMEscan platform)

[27] = molecular target: T27, hSTK36 (Homo sapiens, UniProt Q9NRP7); experiment: KINOMEscan; assay type: binding
T27 construct: purchased DiscoverX (KINOMEscan platform)

[28] = molecular target: T28, hTLK2 (Homo sapiens, UniProt Q86UE8); experiment: KINOMEscan; assay type: binding
T28 construct: purchased DiscoverX

[29] = molecular target: T29, hTXK (Homo sapiens, UniProt P42681); experiment: KINOMEscan; assay type: binding
T29 construct: purchased DiscoverX
T29 sequence (P42681 whole entry): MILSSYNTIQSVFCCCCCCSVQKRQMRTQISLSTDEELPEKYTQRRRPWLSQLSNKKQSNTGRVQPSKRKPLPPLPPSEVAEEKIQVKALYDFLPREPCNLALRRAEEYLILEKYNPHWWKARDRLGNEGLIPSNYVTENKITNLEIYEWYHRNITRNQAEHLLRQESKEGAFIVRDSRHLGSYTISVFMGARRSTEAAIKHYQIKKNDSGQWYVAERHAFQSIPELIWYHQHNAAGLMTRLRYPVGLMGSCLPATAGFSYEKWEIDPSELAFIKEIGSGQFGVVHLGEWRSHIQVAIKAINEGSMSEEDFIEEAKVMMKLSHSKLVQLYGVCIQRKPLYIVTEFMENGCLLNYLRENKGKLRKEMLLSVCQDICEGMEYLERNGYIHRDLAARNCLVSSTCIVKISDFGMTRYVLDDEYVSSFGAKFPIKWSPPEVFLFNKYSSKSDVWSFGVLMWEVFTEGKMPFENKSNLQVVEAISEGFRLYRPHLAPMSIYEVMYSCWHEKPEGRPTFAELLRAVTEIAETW

[30] = molecular target: T30, hPPARα (Homo sapiens, UniProt Q07869); experiment: Nuclear hormone receptor assay (Eurofins-CEREP); details: read-out: Relative IC50
T30 construct: Eurofins-CEREP

[31] = molecular target: T31, hVDR (Homo sapiens, UniProt P11473); experiment: Nuclear hormone receptor assay (Eurofins-CEREP); details: read-out: Relative IC50
T31 construct: Eurofins-CEREP

[32] = molecular target: T32, hD2L (Homo sapiens, UniProt P14416); experiment: cAMP Agonist (Eurofins-CEREP); details: @ 10 μM
T32 sequence (P14416 whole entry): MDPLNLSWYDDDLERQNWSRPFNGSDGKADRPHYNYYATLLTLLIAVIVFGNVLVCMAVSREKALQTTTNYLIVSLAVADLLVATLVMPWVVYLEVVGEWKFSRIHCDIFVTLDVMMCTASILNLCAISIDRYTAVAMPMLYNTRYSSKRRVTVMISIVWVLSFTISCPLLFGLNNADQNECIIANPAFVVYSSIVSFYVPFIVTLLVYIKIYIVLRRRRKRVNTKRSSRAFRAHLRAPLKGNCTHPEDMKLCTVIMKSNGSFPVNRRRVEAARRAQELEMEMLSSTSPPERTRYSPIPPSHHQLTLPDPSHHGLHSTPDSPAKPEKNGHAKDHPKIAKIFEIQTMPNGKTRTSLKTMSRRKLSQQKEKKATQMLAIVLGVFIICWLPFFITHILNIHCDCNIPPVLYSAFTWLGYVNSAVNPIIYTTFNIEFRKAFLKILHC

[33] = molecular target: T32, hD2L; experiment: β-arrestin Antagonist (Eurofins-CEREP); details: read-out: % Effect, Inhibition
[34] = molecular target: hD1 (Homo sapiens, UniProt P21728); experiment: cAMP 1% DMSO Potentiation (Eurofins-CEREP); details: @ 10 μM
hD1, sequence (P21728 whole entry): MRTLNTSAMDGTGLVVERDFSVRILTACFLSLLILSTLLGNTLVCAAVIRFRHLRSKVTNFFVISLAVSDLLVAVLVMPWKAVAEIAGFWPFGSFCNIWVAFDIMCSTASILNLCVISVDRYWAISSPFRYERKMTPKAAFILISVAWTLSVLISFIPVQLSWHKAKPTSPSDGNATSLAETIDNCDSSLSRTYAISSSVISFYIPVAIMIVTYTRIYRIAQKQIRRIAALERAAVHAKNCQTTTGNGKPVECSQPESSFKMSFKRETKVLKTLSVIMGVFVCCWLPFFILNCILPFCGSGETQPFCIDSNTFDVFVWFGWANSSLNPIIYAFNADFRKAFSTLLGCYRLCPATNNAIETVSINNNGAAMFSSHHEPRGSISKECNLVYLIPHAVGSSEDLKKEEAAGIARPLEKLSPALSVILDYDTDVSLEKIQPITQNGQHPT

[35] = molecular target: hH1 (Homo sapiens, UniProt P35367); experiment: Ca Mobilization Potentiation (Eurofins-CEREP); details: @ 10 μM
[36] = molecular target: T33, hADRα1A (Homo sapiens, UniProt P35348); experiment: Calcium Mobilization Potentiation (Eurofins-CEREP); details: @ 10 μM
T33 sequence (P35348 1-466): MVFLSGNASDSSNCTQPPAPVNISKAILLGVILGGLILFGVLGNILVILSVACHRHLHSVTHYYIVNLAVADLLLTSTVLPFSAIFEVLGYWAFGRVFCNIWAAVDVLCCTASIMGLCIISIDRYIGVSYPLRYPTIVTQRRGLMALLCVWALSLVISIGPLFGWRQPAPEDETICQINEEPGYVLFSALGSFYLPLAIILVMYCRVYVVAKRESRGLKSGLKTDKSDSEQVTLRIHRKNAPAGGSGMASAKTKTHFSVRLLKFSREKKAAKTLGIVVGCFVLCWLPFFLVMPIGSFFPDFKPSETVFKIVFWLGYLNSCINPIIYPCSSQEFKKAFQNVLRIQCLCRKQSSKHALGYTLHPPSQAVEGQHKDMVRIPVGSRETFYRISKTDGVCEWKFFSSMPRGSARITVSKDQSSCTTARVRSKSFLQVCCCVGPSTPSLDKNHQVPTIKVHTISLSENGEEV

T2 sequence (P30530 26-894): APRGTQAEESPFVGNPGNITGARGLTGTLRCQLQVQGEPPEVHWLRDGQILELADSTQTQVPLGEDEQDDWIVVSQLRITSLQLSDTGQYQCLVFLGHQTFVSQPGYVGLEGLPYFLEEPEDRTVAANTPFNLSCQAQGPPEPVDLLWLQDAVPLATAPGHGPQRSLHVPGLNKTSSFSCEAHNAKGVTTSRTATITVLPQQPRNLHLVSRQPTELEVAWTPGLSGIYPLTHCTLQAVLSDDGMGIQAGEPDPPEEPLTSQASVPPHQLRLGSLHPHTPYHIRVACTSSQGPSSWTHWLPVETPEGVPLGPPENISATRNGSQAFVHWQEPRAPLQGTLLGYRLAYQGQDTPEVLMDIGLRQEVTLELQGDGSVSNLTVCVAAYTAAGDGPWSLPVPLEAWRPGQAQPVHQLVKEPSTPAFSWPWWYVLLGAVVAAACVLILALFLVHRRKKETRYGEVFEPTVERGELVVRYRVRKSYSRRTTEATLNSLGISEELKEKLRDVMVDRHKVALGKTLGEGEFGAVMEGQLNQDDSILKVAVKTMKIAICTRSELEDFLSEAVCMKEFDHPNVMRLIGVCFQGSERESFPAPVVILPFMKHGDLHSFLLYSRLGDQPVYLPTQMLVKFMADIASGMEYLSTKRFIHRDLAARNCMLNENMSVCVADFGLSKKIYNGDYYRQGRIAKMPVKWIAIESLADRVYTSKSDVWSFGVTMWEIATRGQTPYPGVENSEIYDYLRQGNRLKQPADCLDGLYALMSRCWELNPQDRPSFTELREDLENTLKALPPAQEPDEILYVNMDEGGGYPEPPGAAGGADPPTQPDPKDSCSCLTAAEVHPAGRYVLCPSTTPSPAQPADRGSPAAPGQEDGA
T1 sequence (Q9UM73 19-1620 L1196M): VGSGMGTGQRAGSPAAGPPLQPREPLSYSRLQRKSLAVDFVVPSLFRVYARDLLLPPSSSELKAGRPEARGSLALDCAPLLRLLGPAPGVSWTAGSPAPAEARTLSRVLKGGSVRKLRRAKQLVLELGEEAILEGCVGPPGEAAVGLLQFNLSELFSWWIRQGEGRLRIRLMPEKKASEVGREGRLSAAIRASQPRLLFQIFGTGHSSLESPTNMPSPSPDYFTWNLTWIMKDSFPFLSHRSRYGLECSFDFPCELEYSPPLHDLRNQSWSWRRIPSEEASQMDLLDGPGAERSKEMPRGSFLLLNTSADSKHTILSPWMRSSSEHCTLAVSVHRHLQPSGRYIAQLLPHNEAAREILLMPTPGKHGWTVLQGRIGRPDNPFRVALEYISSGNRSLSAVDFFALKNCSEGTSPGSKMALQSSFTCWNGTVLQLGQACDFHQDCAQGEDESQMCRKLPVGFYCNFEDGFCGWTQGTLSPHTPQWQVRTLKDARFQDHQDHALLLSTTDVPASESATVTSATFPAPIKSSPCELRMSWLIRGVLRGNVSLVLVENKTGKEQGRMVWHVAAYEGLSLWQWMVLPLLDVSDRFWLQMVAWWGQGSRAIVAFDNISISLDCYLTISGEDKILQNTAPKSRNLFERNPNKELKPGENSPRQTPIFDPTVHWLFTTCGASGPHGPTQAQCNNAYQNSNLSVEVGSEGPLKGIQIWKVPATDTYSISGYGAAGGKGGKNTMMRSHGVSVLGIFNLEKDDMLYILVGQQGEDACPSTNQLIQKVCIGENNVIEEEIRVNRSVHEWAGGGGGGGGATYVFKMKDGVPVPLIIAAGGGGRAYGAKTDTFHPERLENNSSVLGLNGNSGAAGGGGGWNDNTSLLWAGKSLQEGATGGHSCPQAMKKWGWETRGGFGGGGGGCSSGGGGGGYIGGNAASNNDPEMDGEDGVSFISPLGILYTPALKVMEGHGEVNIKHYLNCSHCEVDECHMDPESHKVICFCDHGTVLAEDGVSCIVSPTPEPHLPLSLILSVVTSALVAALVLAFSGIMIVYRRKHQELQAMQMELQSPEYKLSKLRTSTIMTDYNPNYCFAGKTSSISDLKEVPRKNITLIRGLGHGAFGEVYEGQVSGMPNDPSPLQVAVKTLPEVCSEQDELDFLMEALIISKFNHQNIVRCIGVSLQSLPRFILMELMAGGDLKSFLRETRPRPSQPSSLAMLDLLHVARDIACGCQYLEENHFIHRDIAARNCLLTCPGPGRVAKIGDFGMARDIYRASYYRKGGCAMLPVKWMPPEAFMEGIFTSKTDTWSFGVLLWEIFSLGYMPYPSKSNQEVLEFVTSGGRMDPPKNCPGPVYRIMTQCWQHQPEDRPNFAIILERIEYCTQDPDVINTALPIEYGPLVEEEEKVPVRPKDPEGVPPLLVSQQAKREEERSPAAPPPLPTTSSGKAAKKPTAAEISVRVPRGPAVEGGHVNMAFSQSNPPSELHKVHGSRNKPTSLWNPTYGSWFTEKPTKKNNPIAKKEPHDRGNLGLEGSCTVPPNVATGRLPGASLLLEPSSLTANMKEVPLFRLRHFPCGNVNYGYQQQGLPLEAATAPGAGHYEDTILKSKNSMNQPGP

## Cc1cn(CCN2CCN(c3ccccc3-c3cc(C#N)cc(C(=O)NCCCN4CCCC4)c3)CC2)c2ccccc12 [LLY-507, 3-cyano-5-{2-[4-[2-(3-methylindol-1-yl)ethyl]piperazin-1-yl]-phenyl}-N-[(3-pyrrolidin-1-yl)propyl]benzamide]
[1]
  IC50: > 20 µM
[2]
  IC50: > 20 µM
[3]
  IC50: > 20 µM
[4]
  IC50: > 20 µM
[5]
  IC50: > 20 µM
[6]
  IC50: > 20 µM
[7]
  inhibition at 20 µM: < 50%
[8]
  IC50: > 20 µM
[9]
  IC50: > 20 µM
[10]
  IC50: > 20 µM
[11]
  IC50: > 20 µM
[12]
  IC50: > 20 µM
[13]
  IC50: > 20 µM
[14]
  IC50: > 20 µM
[15]
  IC50: > 20 µM
[16]
  IC50: > 20 µM
[17]
  IC50: > 20 µM
[18]
  IC50: > 20 µM
[19]
  IC50: > 20 µM
[20]
  IC50: > 20 µM
[21]
  IC50: > 20 µM
[22]
  IC50: > 20 µM
[23]
  IC50: > 20 µM
[24]
  IC50: > 20 µM
[25]
  IC50: > 20 µM
[26]
  IC50: > 20 µM
[27]
  IC50: > 20 µM
[28]
  IC50: > 20 µM
[29]
  IC50: > 20 µM
[30]
  IC50: > 10 µM
[31]
  IC50: > 10 µM
[32]
  % Effect, Stimulation: 10.1%
[33]
  inhibition at 10 µM: 29.8%
[34]
  % Effect, Potentiation: -19.4%
[35]
  % Effect, Potentiation: -8.5%
[36]
  % Effect, Potentiation: -7.9%
